Organism: Rattus norvegicus
Assay: Open TG-GATES - Regimen: Single
Type: toxicity, organism-based, Sprague-Dawley
Design: regimen Single, gender Male, age 6 weeks
Details: in vivo, po, route gavage; for APTT / Bas / Eos / Fbg / Hb / Ht / Lym / MCH / MCHC / MCV / Mono / Neu / PT / Plat / RBC / Ret / WBC: tissue Blood; for KIDNEY_L / KIDNEY_R / KIDNEY_TOTAL: tissue Kidney; for LIVER: tissue Liver; for A/G / ALP / ALT / AST / BUN / CRE / Ca / Cl / DBIL / GLC / IP / K / LDH / Na / PL / RALB / TBIL / TC / TG / TP / gamma-GTP: tissue Plasma
[1] = 100 mg/kg, 3 h, dose level Middle
[2] = 100 mg/kg, 6 h, dose level Middle
[3] = 100 mg/kg, 9 h, dose level Middle
[4] = 100 mg/kg, 24 h, dose level Middle
[5] = 300 mg/kg, 3 h, dose level High
[6] = 300 mg/kg, 6 h, dose level High
[7] = 300 mg/kg, 9 h, dose level High
[8] = 300 mg/kg, 24 h, dose level High

Cc1ccc(C)c(OCCCC(C)(C)C(=O)O)c1 [GEMFIBROZIL]
TERMINAL_BW [1]: 221.2 g
APTT [1]: 15.4 s
Bas [1]: 0%
Eos [1]: 0.8%
Fbg [1]: 283.2 mg/dL
Hb [1]: 13.4 g/dL
Ht [1]: 39.6%
Lym [1]: 78.2%
MCH [1]: 21.5 pg
MCHC [1]: 33.8%
MCV [1]: 63.4 fL
Mono [1]: 3.2%
Neu [1]: 17.4%
PT [1]: 12.4 s
Plat [1]: 116.9 x10_4/uL
RBC [1]: 624.4 x10_4/ul
Ret [1]: 7.2%
WBC [1]: 76.9 x10_2/uL
KIDNEY_L [1]: 1 g
KIDNEY_R [1]: 1 g
KIDNEY_TOTAL [1]: 1.9 g
LIVER [1]: 9.4 g
A/G [1]: 0.8
ALP [1]: 1811 IU/L
ALT [1]: 47.8 IU/L
AST [1]: 80.8 IU/L
BUN [1]: 11.8 mg/dL
CRE [1]: 0.2 mg/dL
Ca [1]: 11.4 mg/dL
Cl [1]: 104.8 meq/L
DBIL [1]: 0.068 mg/dL
GLC [1]: 177 mg/dL
IP [1]: 10.2 mg/dL
K [1]: 4.3 meq/L
LDH [1]: 68.8 IU/L
Na [1]: 140.6 meq/L
PL [1]: 174.2 mg/dL
RALB [1]: 2.5 g/dL
TBIL [1]: 0.072 mg/dL
TC [1]: 88 mg/dL
TG [1]: 155.6 mg/dL
TP [1]: 5.5 g/dL
gamma-GTP [1]: 1.2 IU/L
TERMINAL_BW [2]: 224.5 g
APTT [2]: 14.9 s
Bas [2]: 0%
Eos [2]: 0.8%
Fbg [2]: 297 mg/dL
Hb [2]: 13.9 g/dL
Ht [2]: 40.4%
Lym [2]: 76.2%
MCH [2]: 21.1 pg
MCHC [2]: 34.4%
MCV [2]: 61.2 fL
Mono [2]: 2.8%
Neu [2]: 19.4%
PT [2]: 12 s
Plat [2]: 124.5 x10_4/uL
RBC [2]: 659.6 x10_4/ul
Ret [2]: 7.6%
WBC [2]: 87.8 x10_2/uL
KIDNEY_L [2]: 0.9 g
KIDNEY_R [2]: 0.9 g
KIDNEY_TOTAL [2]: 1.9 g
LIVER [2]: 8.7 g
A/G [2]: 0.9
ALP [2]: 1550.4 IU/L
ALT [2]: 42.4 IU/L
AST [2]: 69.6 IU/L
BUN [2]: 9.8 mg/dL
CRE [2]: 0.2 mg/dL
Ca [2]: 11.3 mg/dL
Cl [2]: 107.2 meq/L
DBIL [2]: 0.072 mg/dL
GLC [2]: 181.2 mg/dL
IP [2]: 10.7 mg/dL
K [2]: 4.2 meq/L
LDH [2]: 61.2 IU/L
Na [2]: 142 meq/L
PL [2]: 158.2 mg/dL
RALB [2]: 2.7 g/dL
TBIL [2]: 0.056 mg/dL
TC [2]: 83.4 mg/dL
TG [2]: 89.2 mg/dL
TP [2]: 5.5 g/dL
gamma-GTP [2]: 1 IU/L
TERMINAL_BW [3]: 221.6 g
APTT [3]: 16 s
Bas [3]: 0%
Eos [3]: 0.8%
Fbg [3]: 274.2 mg/dL
Hb [3]: 13.8 g/dL
Ht [3]: 39.9%
Lym [3]: 68.2%
MCH [3]: 21.4 pg
MCHC [3]: 34.6%
MCV [3]: 62 fL
Mono [3]: 2.8%
Neu [3]: 27.4%
PT [3]: 12.1 s
Plat [3]: 125.1 x10_4/uL
RBC [3]: 643.8 x10_4/ul
Ret [3]: 7%
WBC [3]: 83.1 x10_2/uL
KIDNEY_L [3]: 1 g
KIDNEY_R [3]: 0.9 g
KIDNEY_TOTAL [3]: 1.9 g
LIVER [3]: 8 g
A/G [3]: 0.9
ALP [3]: 1612 IU/L
ALT [3]: 41.8 IU/L
AST [3]: 70 IU/L
BUN [3]: 10.8 mg/dL
CRE [3]: 0.2 mg/dL
Ca [3]: 11 mg/dL
Cl [3]: 106.8 meq/L
DBIL [3]: 0.082 mg/dL
GLC [3]: 186.8 mg/dL
IP [3]: 11 mg/dL
K [3]: 4.1 meq/L
LDH [3]: 53.4 IU/L
Na [3]: 142.8 meq/L
PL [3]: 131.2 mg/dL
RALB [3]: 2.6 g/dL
TBIL [3]: 0.054 mg/dL
TC [3]: 67.6 mg/dL
TG [3]: 59 mg/dL
TP [3]: 5.5 g/dL
gamma-GTP [3]: 1.2 IU/L
TERMINAL_BW [4]: 225.5 g
APTT [4]: 14.8 s
Bas [4]: 0%
Eos [4]: 0.6%
Fbg [4]: 269.6 mg/dL
Hb [4]: 13.8 g/dL
Ht [4]: 39.8%
Lym [4]: 83.4%
MCH [4]: 21.8 pg
MCHC [4]: 34.7%
MCV [4]: 62.9 fL
Mono [4]: 2.2%
Neu [4]: 12.8%
PT [4]: 12.3 s
Plat [4]: 115.1 x10_4/uL
RBC [4]: 633.8 x10_4/ul
Ret [4]: 6.7%
WBC [4]: 74 x10_2/uL
KIDNEY_L [4]: 0.9 g
KIDNEY_R [4]: 0.9 g
KIDNEY_TOTAL [4]: 1.8 g
LIVER [4]: 10.4 g
A/G [4]: 0.9
ALP [4]: 1796.8 IU/L
ALT [4]: 43.6 IU/L
AST [4]: 68.2 IU/L
BUN [4]: 15.8 mg/dL
CRE [4]: 0.2 mg/dL
Ca [4]: 11.3 mg/dL
Cl [4]: 105 meq/L
DBIL [4]: 0.072 mg/dL
GLC [4]: 196.8 mg/dL
IP [4]: 7.9 mg/dL
K [4]: 4.1 meq/L
LDH [4]: 56.4 IU/L
Na [4]: 141.6 meq/L
PL [4]: 125.2 mg/dL
RALB [4]: 2.7 g/dL
TBIL [4]: 0.04 mg/dL
TC [4]: 62.6 mg/dL
TG [4]: 69 mg/dL
TP [4]: 5.5 g/dL
gamma-GTP [4]: 1.2 IU/L
TERMINAL_BW [5]: 224.5 g
APTT [5]: 15.3 s
Bas [5]: 0%
Eos [5]: 0.4%
Fbg [5]: 299.8 mg/dL
Hb [5]: 13.9 g/dL
Ht [5]: 40.1%
Lym [5]: 74%
MCH [5]: 22.2 pg
MCHC [5]: 34.6%
MCV [5]: 64.1 fL
Mono [5]: 3.2%
Neu [5]: 20.8%
PT [5]: 12.2 s
Plat [5]: 122 x10_4/uL
RBC [5]: 625.6 x10_4/ul
Ret [5]: 7.4%
WBC [5]: 74.7 x10_2/uL
KIDNEY_L [5]: 0.9 g
KIDNEY_R [5]: 1 g
KIDNEY_TOTAL [5]: 1.9 g
LIVER [5]: 9.5 g
A/G [5]: 0.8
ALP [5]: 1942.2 IU/L
ALT [5]: 47 IU/L
AST [5]: 75.6 IU/L
BUN [5]: 13 mg/dL
CRE [5]: 0.2 mg/dL
Ca [5]: 11.4 mg/dL
Cl [5]: 104.6 meq/L
DBIL [5]: 0.2 mg/dL
GLC [5]: 168 mg/dL
IP [5]: 9.9 mg/dL
K [5]: 4.4 meq/L
LDH [5]: 75.6 IU/L
Na [5]: 141.2 meq/L
PL [5]: 188.8 mg/dL
RALB [5]: 2.7 g/dL
TBIL [5]: 0.082 mg/dL
TC [5]: 83.6 mg/dL
TG [5]: 320 mg/dL
TP [5]: 5.8 g/dL
gamma-GTP [5]: 1.2 IU/L
TERMINAL_BW [6]: 222.4 g
APTT [6]: 14.3 s
Bas [6]: 0%
Eos [6]: 0.6%
Fbg [6]: 305.6 mg/dL
Hb [6]: 13.7 g/dL
Ht [6]: 40%
Lym [6]: 77.4%
MCH [6]: 21 pg
MCHC [6]: 34.2%
MCV [6]: 61.3 fL
Mono [6]: 3.4%
Neu [6]: 17.8%
PT [6]: 11.8 s
Plat [6]: 122.9 x10_4/uL
RBC [6]: 651.8 x10_4/ul
Ret [6]: 6.7%
WBC [6]: 77.1 x10_2/uL
KIDNEY_L [6]: 0.9 g
KIDNEY_R [6]: 0.9 g
KIDNEY_TOTAL [6]: 1.8 g
LIVER [6]: 8.5 g
A/G [6]: 0.9
ALP [6]: 1762.4 IU/L
ALT [6]: 44.2 IU/L
AST [6]: 76.2 IU/L
BUN [6]: 9.8 mg/dL
CRE [6]: 0.2 mg/dL
Ca [6]: 11.4 mg/dL
Cl [6]: 106.4 meq/L
DBIL [6]: 0.1 mg/dL
GLC [6]: 171.2 mg/dL
IP [6]: 10.8 mg/dL
K [6]: 4.3 meq/L
LDH [6]: 61.6 IU/L
Na [6]: 142.6 meq/L
PL [6]: 171.2 mg/dL
RALB [6]: 2.7 g/dL
TBIL [6]: 0.086 mg/dL
TC [6]: 88.2 mg/dL
TG [6]: 121 mg/dL
TP [6]: 5.5 g/dL
gamma-GTP [6]: 1.2 IU/L
TERMINAL_BW [7]: 224.1 g
APTT [7]: 15 s
Bas [7]: 0%
Eos [7]: 0.6%
Fbg [7]: 306.4 mg/dL
Hb [7]: 13.7 g/dL
Ht [7]: 40.2%
Lym [7]: 75.2%
MCH [7]: 21.8 pg
MCHC [7]: 34.1%
MCV [7]: 64.1 fL
Mono [7]: 2.4%
Neu [7]: 21%
PT [7]: 11.9 s
Plat [7]: 117.7 x10_4/uL
RBC [7]: 628 x10_4/ul
Ret [7]: 7.8%
WBC [7]: 52.7 x10_2/uL
KIDNEY_L [7]: 1 g
KIDNEY_R [7]: 0.9 g
KIDNEY_TOTAL [7]: 1.9 g
LIVER [7]: 8.3 g
A/G [7]: 0.9
ALP [7]: 1746.4 IU/L
ALT [7]: 38.8 IU/L
AST [7]: 68 IU/L
BUN [7]: 10.6 mg/dL
CRE [7]: 0.2 mg/dL
Ca [7]: 11.3 mg/dL
Cl [7]: 106.2 meq/L
DBIL [7]: 0.1 mg/dL
GLC [7]: 177.6 mg/dL
IP [7]: 11.8 mg/dL
K [7]: 4.3 meq/L
LDH [7]: 59.4 IU/L
Na [7]: 143.2 meq/L
PL [7]: 143.8 mg/dL
RALB [7]: 2.7 g/dL
TBIL [7]: 0.076 mg/dL
TC [7]: 73.2 mg/dL
TG [7]: 59.6 mg/dL
TP [7]: 5.7 g/dL
gamma-GTP [7]: 1.4 IU/L
TERMINAL_BW [8]: 224.7 g
APTT [8]: 14.7 s
Bas [8]: 0%
Eos [8]: 0.8%
Fbg [8]: 320.4 mg/dL
Hb [8]: 13.6 g/dL
Ht [8]: 39.5%
Lym [8]: 80%
MCH [8]: 21.5 pg
MCHC [8]: 34.4%
MCV [8]: 62.6 fL
Mono [8]: 3.4%
Neu [8]: 15.2%
PT [8]: 12.2 s
Plat [8]: 102.6 x10_4/uL
RBC [8]: 631.8 x10_4/ul
Ret [8]: 6.3%
WBC [8]: 73.6 x10_2/uL
KIDNEY_L [8]: 1 g
KIDNEY_R [8]: 1 g
KIDNEY_TOTAL [8]: 2 g
LIVER [8]: 10.9 g
A/G [8]: 1
ALP [8]: 2167.4 IU/L
ALT [8]: 46.4 IU/L
AST [8]: 74 IU/L
BUN [8]: 12.8 mg/dL
CRE [8]: 0.2 mg/dL
Ca [8]: 11.3 mg/dL
Cl [8]: 105.6 meq/L
DBIL [8]: 0.1 mg/dL
GLC [8]: 189 mg/dL
IP [8]: 8 mg/dL
K [8]: 4 meq/L
LDH [8]: 74.8 IU/L
Na [8]: 141.8 meq/L
PL [8]: 124 mg/dL
RALB [8]: 2.7 g/dL
TBIL [8]: 0.06 mg/dL
TC [8]: 63.6 mg/dL
TG [8]: 67.2 mg/dL
TP [8]: 5.5 g/dL
gamma-GTP [8]: 1.2 IU/L
